Measurements: publication PMC8150775, “Repositioning Azelnidipine as a Dual Inhibitor Targeting CD47/SIRPα and TIGIT/PVR Pathways for Cancer Immuno-Therapy” (Biomolecules, 2021)

Tests used:
MC38 cells = experiment: Phagocytosis assay, BMDM co-cultured with GFP+ MC38 cells; type: cell-based, mouse; details: 20 μM, 4 h
Method: Bone marrow-derived macrophage (BMDM) cells were isolated from C57BL/6 or BALB/c mice and induced with 20 ng/mL of GM-CSF (Peprotech, Rocky Hill, CT, USA) for 7 days. Meanwhile, the medium was replaced with fresh medium containing the cytokine and the adherent cells were harvested. Phagocytosis assays were performed by a co-culture of the BMDM macrophages with carboxyfluorescein succinimidyl ester-labeled (CFSE^+) or GFP^+ tumor cells at a ratio of 1:4 in a serum-free medium at 37 °C for 4 h, in low-attachment 96-well tissue culture plates (Corning, New York, NY, USA). The cells were harvested and the macrophages were identified by a flow cytometry using anti-F4/80 antibody (eBioscience, San Diego, CA, USA). Then, 7-AAD (eBioscience) was used to exclude the dead cells. The effects of azelnidipine (20 μM) on phagocytosis by BMDM cells were tested, and the anti-CD47 antibody (clone: miap301) were used as the positive control. Phagocytosis rate was determined with the formulation: F4/80^+GFP^+ or F4/80^+CFSE^+ cells/ Total F4/80^+ cells.
Figure 4 Azelnidipine enhances macrophage mediated phagocytosis of the tumor cells. The effects of the azelnidipine on the phagocytosis of the macrophages were tested by a co-culture of the tumor cells and BMDM cell derived from C57BL/6 or BALB/c mice. […] GFP^+ or CFSE^+ BMDMs were detected by a flow cytometry. […]

CT26 tumors = experiment: CD8+ T cell depletion CT26 tumor model; type: in vivo, BALB/c mice
Method: To establish the CD8^+ T cell depletion model, BALB/c mice were injected with 200 μg of CD8-depleting antibody (clone: YTS169.4) or matched Rat IgG isotype control (Sigma-Aldrich) the day before tumor inoculation and as well as weekly thereafter, resulting in a total of 3 injections per mouse. Depletion efficacy of CD8^+ T cells was verified by a flow cytometry with the blood sample of mice treated with indicated antibodies for 7 days.
Figure S2. The antitumor effects of Azelnidipine in CD8+ T cell depleted CT26 tumor model.
(A) CT26 tumor-bearing mice were i.p. administrated with 5 mg/kg of Azelnidipine daily as in the schematic diagram. (B) Blood samples of the mice treated with 200 μg anti-CD8 (YTS 169.4) or Rat IgG control for seven days were used to analyze the depletion efficacy by flow cytometry.
(C) Tumor growth curve of CT26 tumor-bearing mice treated with normal saline or Azelnidipine alone (n = 5 or 6). (D) Representative flow cytometry plots and summary data of the MDSCs in the tumor tissues of the Rat IgG treated groups (NS and Azelnidipine). (E) Representative flow cytometry histograms and summary data of the expression of SIRPα on M-MDSCs in the tumor tissues of the Rat IgG treated groups (NS and Azelnidipine). *, P<0.05.
(§1) (1 picture or pasted object on this page, not shown here)

PVR = experiment: Flow cytometry of PVR expression on tumor cells from CT26-bearing mice; type: in vivo, mouse; details: 5 mg/kg for twelve days, CD45- tumor cells
Method: Cells in good growth condition were harvested and used to detect the expression of CD47 and PVR. Antibodies anti-human CD47 APC, anti-human PVR PE, anti-mouse-CD47 APC, anti-mouse-PVR APC, and matched isotype controls were purchased from eBioscience, San Diego, CA, USA. The effects of azelnidipine on the expression of CD47 and PVR was determined by incubating CT26 cells with 20 μM of azelnidipine for 24 h, or directly analyzing the tumor cells from tumor tissues of CT26-bearing mice treated with or without azelnidipine.
Figure S3. The effects of Azelnidipine on the expression of CD47 and PVR on CT26 tumor cells. (A and B) CT26 cells were incubated with 20 μM Azelnidipine or vehicle control for 24h, and analyzed the expression of CD47 (A) and PVR (B). The gray shaded histogram represents the isotype, the red line represents the cells treated with vehicle control, and the blue line represents the cells treated with Azelnidipine. (C and D) Tumor cells (CD45-) derived from the tumor tissues of CT26 tumor-bearing mice treated with normal saline (NS) or 5 mg/kg Azelnidipine for twelve days, were analyzed for the expression of CD47 (C) and PVR (D). n.s. means not […]
as §1

[1] = system: peripheral blood mononuclear cells; parameters: method as in PMID 29398679, PMID 20606305; details: cited from earlier work
IL-12 p40 = system: IL-12 p40; parameters: method as in PMID 19438591; details: cited from earlier work
[2] = 5 mg/kg i.p., Rat IgG treated groups

Compound: CC1=C(C(=O)OC(C)C)C(c2cccc([N+](=O)[O-])c2)C(C(=O)OC2CN(C(c3ccccc3)c3ccccc3)C2)=C(N)N1 (centres unmarked) [Azelnidipine]
- phagocytosis of MC38 cells by BMDM cells (MC38 cells): significantly enhance
- anti-tumor effect with CD8+ T cells depleted (CT26 tumors; 5 mg/kg i.p. daily, CD8-depleting antibody): abrogated
- CT26 tumor growth, Rat IgG treated groups (CT26 tumors; 5 mg/kg i.p. daily, Rat IgG isotype control): significantly inhibit tumor growth
- expression level of SIRPα on MDSCs in CT26 tumor tissues, NS vs azelnidipine (CT26 tumors; [2]): no significant difference
- infiltration of MDSCs in CT26 tumor tissues, NS vs azelnidipine (CT26 tumors; [2]): no significant difference
- expression of PVR on CT26 tumor cells derived from tumor tissues (PVR): could inhibit the expression of PVR
- cytokine secretion of peripheral blood mononuclear cells [1]: inhibit
- secretion of IL-12 p40 mediated by immune complex (IL-12 p40): enhance the secretion of IL-12 p40
